Results from US8486897B2, “C-aryl glycoside compounds for the treatment of diabetes and obesity” (TFCHEM, priority 2008, dated 2013).

Tests used:
[1] = target: T1, Human SGLT1 (Homo sapiens, UniProt P13866); assay: Cell-based assay for inhibition of uptake of 14C-methyl-α-D-glucopyranoside (14C-AMG) in CHO-K1 cells stably expressing human SGLT1; details: compound at 100 μM, 14C-AMG uptake, 1 hour at 37° C.
T1 construct: pCMV6 vector containing the full length human SGLT1 gene
T1 sequence (P13866 1-664): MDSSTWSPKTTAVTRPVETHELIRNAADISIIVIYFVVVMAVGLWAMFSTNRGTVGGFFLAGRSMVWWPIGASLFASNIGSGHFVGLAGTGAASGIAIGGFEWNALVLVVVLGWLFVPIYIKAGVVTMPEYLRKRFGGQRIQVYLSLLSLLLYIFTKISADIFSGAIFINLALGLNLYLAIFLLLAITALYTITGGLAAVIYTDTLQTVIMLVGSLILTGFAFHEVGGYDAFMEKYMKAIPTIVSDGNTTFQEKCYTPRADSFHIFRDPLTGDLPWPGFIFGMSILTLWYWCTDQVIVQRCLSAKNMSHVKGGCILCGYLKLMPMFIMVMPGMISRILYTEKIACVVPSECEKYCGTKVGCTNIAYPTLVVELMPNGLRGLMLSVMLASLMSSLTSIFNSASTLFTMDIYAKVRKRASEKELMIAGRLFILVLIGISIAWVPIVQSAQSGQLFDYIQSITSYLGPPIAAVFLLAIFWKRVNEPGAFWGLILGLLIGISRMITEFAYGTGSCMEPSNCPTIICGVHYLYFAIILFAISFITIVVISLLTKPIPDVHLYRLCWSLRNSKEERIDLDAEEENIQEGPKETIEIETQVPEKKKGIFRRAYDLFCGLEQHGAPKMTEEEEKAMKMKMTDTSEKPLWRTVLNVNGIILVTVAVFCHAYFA
From the text: (§1) 1. Preparation of Human SGLT1 and Human SGLT2 Expression Vectors:
• Human SGLT1 (Genbank M24847) cDNA was cloned from a pCMV6 vector containing the full length human SGLT1 gene (Origene NM 000343, Cat. #: RC221312) and Human SGLT2 (Genbank M95549) cDNA was cloned from a pCMV6 vector containing the full length human SGLT2 gene (Origene NM_003041, Cat. #: RC224822). The full cDNAs were subcloned independently into mammalian cell expression plasmid pSPI1 and sequenced to verify the integrity of the construct. 2. Preparation of CHO-K1 Cells Stably Expressing Human SGLT1 and Human SGLT2: • Transfection of CHO-K^1 cells was performed using 2.5 ug of pSPI1-SGLT1 or pSPI1-SGLT2 plasmid with about 6 ul of Lipofectamin 2000 (Invitrogen, Cat. #: 11668-019) in about 1.5×10^5 CHO-K1 cells using 12-well cell culture plate (Becton Dickinson, Cat. #: 353003) in the presence of DMEM medium (Dulbecco's Modified Eagle Medium) (Gibco, Cat. #: 11885-092) containing 10% FBS (Sigma, Cat. #: F1051-500mL). […] Sodium-dependent D-glucose transport was determined by measuring the uptake of 14C-methyl-α-D-glucopyranoside (14C-AMG) with a specific activity of 250-350mCi (9.25-13.0 GBq)/mmol (PerkinElmer, Cat. #: NEC 659250UC). […] Scintillation cocktail (1004) was added and the 14C-AMG radioisotope counted in a MicroBeta Trilux (PerkinElmer).

[2] = target: T2, Human SGLT2 (Homo sapiens, UniProt P31639); assay: Cell-based assay for inhibition of uptake of 14C-methyl-α-D-glucopyranoside (14C-AMG) in CHO-K1 cells stably expressing human SGLT2; details: 14C-AMG uptake, 1 hour at 37° C.; for inhibition at 10 µM: compound at 10 μM; for inhibition at 100 µM: compound at 100 μM
T2 construct: pCMV6 vector containing the full length human SGLT2 gene
T2 sequence (P31639 1-672): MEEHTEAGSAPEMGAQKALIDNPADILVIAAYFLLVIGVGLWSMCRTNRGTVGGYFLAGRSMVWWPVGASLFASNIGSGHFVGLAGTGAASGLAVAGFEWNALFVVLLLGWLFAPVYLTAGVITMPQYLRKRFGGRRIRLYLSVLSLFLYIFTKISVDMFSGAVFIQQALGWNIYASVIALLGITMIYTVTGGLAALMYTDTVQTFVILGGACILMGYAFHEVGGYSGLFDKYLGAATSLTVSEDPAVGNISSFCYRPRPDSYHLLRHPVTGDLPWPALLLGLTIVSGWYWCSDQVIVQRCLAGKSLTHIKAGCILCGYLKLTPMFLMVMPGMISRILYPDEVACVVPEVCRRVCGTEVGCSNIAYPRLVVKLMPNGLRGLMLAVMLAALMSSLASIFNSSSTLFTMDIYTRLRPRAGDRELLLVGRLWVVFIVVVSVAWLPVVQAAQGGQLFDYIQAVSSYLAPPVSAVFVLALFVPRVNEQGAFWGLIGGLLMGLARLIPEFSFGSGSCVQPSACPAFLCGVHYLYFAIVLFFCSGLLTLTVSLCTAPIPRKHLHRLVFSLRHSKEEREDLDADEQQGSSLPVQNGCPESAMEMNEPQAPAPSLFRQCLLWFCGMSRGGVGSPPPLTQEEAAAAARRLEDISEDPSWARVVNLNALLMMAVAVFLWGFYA
From the text: The compounds of the invention have been tested for their ability to inhibit Human Sodium Glucose Co-Transporter 2 (Human SGLT2) according to the following protocol:
as §1
• Human SGLT1 (Genbank M24847) cDNA was cloned from a pCMV6 vector containing the full length human SGLT1 gene (Origene NM 000343, Cat. #: RC221312) and Human SGLT2 (Genbank M95549) cDNA was cloned from a pCMV6 vector containing the full length human SGLT2 gene (Origene NM_003041, Cat. #: RC224822). The full cDNAs were subcloned independently into mammalian cell expression plasmid pSPI1 and sequenced to verify the integrity of the construct. 2. Preparation of CHO-K1 Cells Stably Expressing Human SGLT1 and Human SGLT2: • Transfection of CHO-K^1 cells was performed using 2.5 ug of pSPI1-SGLT1 or pSPI1-SGLT2 plasmid with about 6 ul of Lipofectamin 2000 (Invitrogen, Cat. #: 11668-019) in about 1.5×10^5 CHO-K1 cells using 12-well cell culture plate (Becton Dickinson, Cat. #: 353003) in the presence of DMEM medium (Dulbecco's Modified Eagle Medium) (Gibco, Cat. #: 11885-092) containing 10% FBS (Sigma, Cat. #: F1051-500mL). Transfectants were then selected in the presence of the antibiotic G418 (GIBCO, Cat. #: 11811-031) at final concentration of 750 ug/ml. Individual clones for both SGLT1 and SGLT2 were then characterized using the functional cell-based assay described below. 3. Cell-Based Assay for Inhibition of Uptake of methyl-α-D-glucopyranoside by Human SGLT1 and Human SGLT2: • Selected cell lines stably expressing human SGLT1 or human SGLT2 were then used for functional analysis of sodium dependent glucose uptake. Sodium-dependent D-glucose transport was determined by measuring the uptake of 14C-methyl-α-D-glucopyranoside (14C-AMG) with a specific activity of 250-350mCi (9.25-13.0 GBq)/mmol (PerkinElmer, Cat. #: NEC 659250UC). The assay buffer used to assess sodium-dependent D-glucose transport was Krebs-Ringer-Henseleit (KRH) solution containing 4.7 mM KCl, 1.2 mM MgCl2, 2.2 mM CaCl2, 10 mM Hepes pH 7.4 with Tris (Sigma). For sodium (Na^+) conditions the Assay Buffer containing 120 mM NaCl (Na^+) was used to assess sodium-dependent D-glucose transport (KRH-Na^+). For sodium free conditions, KRH solution containing 120 mM N-methyl-glucamine (NMG) instead of NaCl (Na^+) was used to assess sodium-independent D-glucose transport (KRH-NMG). All buffer chemicals were purchased from Sigma. • In brief, the cells were plated at a density of 40,000 cells per well in a 96-well plate in DMEM media and allowed to grow for 24 hours. Cells were subsequently washed twice (2×100 μL) with KRH buffer cells containing NMG. […] Scintillation cocktail (1004) was added and the 14C-AMG radioisotope counted in a MicroBeta Trilux (PerkinElmer).

Row | Compound | inhibition at 100 µM [1] [%] | inhibition at 10 µM [2] [%] | inhibition at 100 µM [2] [%]
1 | CCc1ccc(Cc2ccccc2C(F)(F)[C@@H]2O[C@H](CO)[C@@H](O)[C@H](O)[C@H]2O)cc1 [Compound 104] | 48 | 40 | 56
2 | OC[C@H]1O[C@@H](C(F)(F)c2ccccc2)[C@H](O)[C@@H](O)[C@@H]1O [Compound 100] | 46 | 30 | 79
